Laboratory results published in patent US7109043B2, “Fluorescent probe for magnesium ion determination” (Japan Science and Technology Corporation, priority 2000, dated 2006).
Entries after “also recorded” stand apart in the source; their conditions may differ. Like-named read-outs stand apart in the source and are kept apart here.

How the values were obtained:
[1] = Binding constant to magnesium ion by fluorescence titration (Benesi-Hildebrand plot); details: for KMg (binding constant to Mg^2+): probe 10 μM in HEPES 10.0 mM, KCl 120.0 mM, NaCl 20.0 mM, EGTA 2.0 mM, pH 7.20, excitation 448 nm, fluorescence 505 nm; for KMg/KCa (selectivity to magnesium ion): ratio of binding constant to magnesium ion to binding constant to calcium ion
Experimental: (§1) Selectivities to magnesium ion (i.e., the ratio of binding constant to magnesium ion to the binding constant to calcium ion) of KMG-20 synthesized in Example 1 and KMG-27 synthesized in Example 4 were measured. More particularly, this measurement was carried out as follows:
(§2) The fluorescent indicator was dissolved in a solvent (HEPES 10.0 mM, KCl 120.0 mM, NaCl 20.0 mM, EGTA 2.0 mM, pH 7.20) to a concentration of 10 μM. To this solution, a metal salt solution (MgCl2, CaCl2) in the above-described solvent was added to a concentration of 0 to 500 mM, and fluorescence spectrum was measured.
(§3) The conditions of the fluorophotometer (Hitachi F4500) were as follows: excitation wavelength: 448 nm, slit width: excitation side: 2.5 nm, fluorescence side 2.5 nm, photomultiplier voltage: 700V, scanning rate: 240 nm/min.
The fluorescence intensities at the maximum fluorescence wavelength (505 nm) when the concentration of the metal ion was changed were measured, and the binding constants to Mg^2+ and Ca^2+ were calculated by using Benesi-Hildebrand plot method (J. Am. Chem. Soc. 71, 2703 (1949)).
For comparison, the binding constants of known magnesium probes commercially available from Molecular Probes, that is, mag-fura-2 (Proc. Natl. Acad. Sci. USA, 86, 2981 (1989)), mag-indo-1(J. Physiol, 475, 319 (1994)), mag-fura-5 (J. Physiol, 475, 319 (1994)) and Magnesium Green (J. Biol. Chem. 270, 18975 (1995)) are also shown in Table 1.

[2] = Binding constant to calcium ion by fluorescence titration (Benesi-Hildebrand plot); details: probe 10 μM in HEPES 10.0 mM, KCl 120.0 mM, NaCl 20.0 mM, EGTA 2.0 mM, pH 7.20; excitation 448 nm, fluorescence 505 nm
Experimental: as §1, §2, §3
The fluorescence intensities at the maximum fluorescence wavelength (505 nm) when the concentration of the metal ion was changed were measured, and the binding constants to Mg^2+ and Ca^2+ were calculated by using Benesi-Hildebrand plot method (J. Am. Chem. Soc. 71, 2703 (1949)). […]

PC-12 cells = assay: Measurement of magnesium ions in cells using fluorescent probe (No. 2), fluorescence microscopy; assay type: cell-based, rat; details: for Change in fluorescence intensity after addition of FCCP: 5.0 μM FCCP (raises free magnesium ion level); for Staining / dispersion of the probe in cells: excitation 440 nm, detection 500–530 nm
Experimental: Behavior of magnesium ions in cells were measured using the fluorescent probe synthesized in Example 4.
(§4) Since this fluorescent probe KMG-20 has an acetoxymethyl group, it has a high lipid solubility and is easy to transfer from the culture medium to the cell membrane. In the vicinity of the cell membrane, the acetoxymethyl group is removed by an ester hydrolysis enzyme in the cell and becomes again a water-soluble compound having a carboxyl group, so that it is diffused into the cytoplasm.
A solution of the fluorescent probe in DMSO (1.0 ml) was added to Hanks-HEPES buffer so as to attain a final concentration of 10.0 μM, and the mixture was subjected to ultrasonication. The culture medium in which PC-12 cells (cloned nerve cells isolated from rat adrenal medulla chrome-philic cytoma) had been cultured at 37° C. on a petri dish was replaced with the fluorescent probe solution, and the cells were incubated at 37° C. for 30 minutes. […] The excitation wavelength was 440 nm and the detection wavelength was 500–530 nm. For comparison, the cells before the treatment with the fluorescence probe were also observed with the fluorescence microscope.
(§5) To clarify the behavior of free magnesium ions in the cells, 5.0 μM carbonylcyanoid p-(trifluoromethoxy)phenylhydrazone (FCCP) was added. As a result, the entire cell was brightened. The change in the fluorescence intensity with time after the addition of FCCP was observed. […] It is known that magnesium ion usually binds to an oxygen atom in the phosphoric acid ester moiety of a phosphorylated substrate such as ATP, ADP, phosphorylated saccharide, nucleic acid or the like to neutralize the electric charge thereof, and serves as an acid catalyst, and that enzymes whose corresponding substrates are phosphoric acid ester compounds require magnesium ion as a co-factor. Since FCCP serves as a respiration inhibitor of mitochondria in the cells, the ATP activity in the cells is decreased and so the free magnesium ion level is increased, it is thought that the fluorescent probe formed a complex with magnesium ion, thereby increasing the fluorescence intensity.
(§6) Further, 10 μM acetylcholine was added to the cells so as to compulsively increase the calcium level in the cells.

[3] = known commercial magnesium probes, literature values for comparison; cited from earlier work
[4] = known commercial magnesium probes, literature values for comparison; cited from earlier work; remark: listed apart in the source
[5] = test system: bovine vascular endothelial cells; assay: Measurement of magnesium ions in cells using fluorescent probe (No. 1), fluorescence microscopy; assay type: cell-based
Experimental: as §4, with “Magnesium ions in cells were measured using the fluorescent probe KMG-20 synthesized in Example 1. Since” for “Since”, “the” for “this”, “cytoplasm. Upon forming a complex with a magnesium ion, the fluorescence of KMG-20 is increased.” for “cytoplasm.”
A solution of the fluorescent probe KMG-20 in DMSO (1.0 ml) was added to Hanks-HEPES buffer so as to attain a final concentration of 10.0 μM, and the mixture was subjected to ultrasonication. The culture medium in which bovine vascular endothelial cells had been cultured at 37° C. on a petri dish was replaced with the above-described KMG-20 solution, and the cells were incubated at 37° C. for 30 minutes. […] The excitation wavelength was 440 nm and the detection wavelength was 500–530 nm. For comparison, the cells before the treatment with the fluorescence probe were also observed with the fluorescence microscope.
as §5, with “5” for “5.0”, “KMG-20” for “the fluorescent probe”
as §6

[6] = 10 μM acetylcholine (increases calcium level in the cells)
[7] = 10.0 μM probe, 37° C. 30 minutes, fluorescence microscope

Structure (SMILES) | KMg (binding constant to Mg^2+) [1] [M⁻¹] | KMg/KCa (selectivity to magnesium ion) [1] | KCa (binding constant to Ca^2+) [2] [M⁻¹] | KMg (binding constant to Mg^2+) [3] [M⁻¹] | KCa (binding constant to Ca^2+) [4] | other results
CC(=O)OCOC(=O)c1cc2cc3c4c(c2oc1=O)CCCN4CCC3 [KMG-20, (13-aza-3-oxa-4-oxotetracyclo[7.7.1.0<2,7>.0<13,17>]heptadeca-1(17),2(7),5,8-tetraene-5-ylcarbonyloxy)methyl acetate] | 100.0 | 3.0 | 33.3 |  |  | Change in fluorescence intensity after addition of FCCP ([5]; 5 μM FCCP (raises free magnesium ion level)): fluorescence intensity was increased during 1 minute from the addition of FCCP; Change in fluorescence intensity after addition of acetylcholine [5, 6]: increase of the fluorescence intensity was not observed; Staining / dispersion of the probe in cells ([5]; 10.0 μM probe, 37° C. 30 minutes, excitation 440 nm, detection 500–530 nm): uniformly dispersed and stained the cells; also recorded: uniformly dispersed in the cytoplasm; Location of the probe in the cell [5, 7]: located in the vicinity of the nucleus
O=C([O-])COc1cc(NC(=O)c2ccc3c(c2)C(=O)OC32c3cc(Cl)c([O-])cc3Oc3cc([O-])c(Cl)cc32)ccc1N(CC(=O)[O-])CC(=O)[O-].[K+].[K+].[K+].[K+].[K+] [Magnesium Green] |  | 0.003 |  | 500.0 | 166,660 M^−1 | 

The next lines start with results.

KMg (binding constant to Mg^2+) [1] [M⁻¹] | KMg/KCa (selectivity to magnesium ion) [1] | KCa (binding constant to Ca^2+) [2] [M⁻¹] | Structure (SMILES) | KMg (binding constant to Mg^2+) [3] [M⁻¹] | KCa (binding constant to Ca^2+) [4] | other results
102.0 | 3.09 | 33.0 | COC(=O)c1cc2cc3c4c(c2oc1=O)C(C)(C)CCN4CCC3(C)C [KMG-27, methyl-13-aza-10,10,16,16-tetramethyl-3-oxa-4-oxo-tetracyclo[7,7,1,0<2,7>.O<13,17>]heptadeca-1(17),2(7),5,8-tetraene-5-carboxylate] |  |  | Change in fluorescence intensity after addition of FCCP (PC-12 cells): increase in the fluorescent intensity was observed; Change in fluorescence intensity after addition of FCCP (PC-12 cells; listed as Example 4): fluorescence intensity was increased during 1 minute from the addition of FCCP; Change in fluorescence intensity after addition of acetylcholine (PC-12 cells; [6]): increase of the fluorescence intensity was not observed; Staining / dispersion of the probe in cells (PC-12 cells; 10.0 μM probe, 37° C. 30 minutes): uniformly dispersed in the cells; Staining / dispersion of the probe in cells (PC-12 cells; 10.0 μM probe, 37° C. 30 minutes, listed as Example 4): uniformly dispersed and stained the cells; Location of the probe in the cell (PC-12 cells; [7]): located in the vicinity of the nucleus
 | 0.013 |  | O=C(O)COc1cc2cc(-c3ncc(C(=O)O)o3)oc2cc1N(CC(=O)O)CC(=O)O [mag-fura-2] | 526.3 | 40,000 M^−1 | 
 | 0.013 |  | O=C(O)COc1cc(-c2cc3ccc(C(=O)O)cc3[nH]2)ccc1N(CC(=O)O)CC(=O)O [mag-indo-1] | 370.4 | 28,570 M^−1 | 
